# How the values were obtained:
# [1] = system: Fusicladium levieri; experiment: Activity against microorganisms; type: cell-based
# [2] = system: Cryptococcus neoformans; experiment: Activity against microorganisms; type: cell-based
# [3] = system: Cochlioborus miyabeanus; experiment: Activity against microorganisms; type: cell-based
# [4] = Solubility; type: physicochemical
# [5] = system: P388 leukemia; experiment: Antitumour activity upon P388 leukemia in mice; type: in vivo, mouse; details: 0.00625 mg/kg/day, intraperitoneal, 9 consecutive days; 1×10^6 cells/animal i.p. transplanted
# Source text: The therapeutic effects of P-3 (dosed intraperito-nearly for 9 consecutive days) upon P388 leukemia in mice (1×10^6 cells/animal, mouse, intra-peritoneally transplanted) was investigated.
# [6] = system: Helminthosporium sigmoidium var irregulare; experiment: Activity against microorganisms; type: cell-based
# [7] = system: Pyricularia oryzae; type: cell-based
# [8] = system: Rhodotorula rubra; experiment: Activity against microorganisms; type: cell-based
# [9] = system: Proteus mirabilis; experiment: Antimicrobial activity, paper disc method; type: cell-based; details: paper disc 8 mm, 0.02 ml of a 300 μg/ml solution, trypticase-soy agar
# Experimental: (§1) With trypticase-soy agar (BBL) as an assay medium, the inhibitory concentrations against the microorganisms described below were investigated by the paper disc method. Filter-paper discs (Toyo Seisakusho, thin-type, 8 mm in dia.) each impregnated with 0.02 ml of a 300 μg/ml solution of P-3 were placed on agar plates respectively inoculated with the microorganisms described below. P-3 had no activity against the following bacteria: Escherichia coli, Proteus vulgaris, Proteus mirabilis, Pseudomonas aeruginosa, Staphylococcus aureus, Bacillus subtilis, Bacillus cereus, Klebsiella pneumoniae, Serratia marcescens, and Mycobacterium avium.
# [10] = system: Proteus vulgaris; experiment: Antimicrobial activity, paper disc method; type: cell-based; details: paper disc 8 mm, 0.02 ml of a 300 μg/ml solution, trypticase-soy agar
# Experimental: as §1
# [11] = system: Pseudomonas aeruginosa; experiment: Antimicrobial activity, paper disc method; type: cell-based; details: paper disc 8 mm, 0.02 ml of a 300 μg/ml solution, trypticase-soy agar
# Experimental: as §1
# [12] = system: Staphylococcus aureus; experiment: Antimicrobial activity, paper disc method; type: cell-based; details: paper disc 8 mm, 0.02 ml of a 300 μg/ml solution, trypticase-soy agar
# Experimental: as §1
# [13] = system: Serratia marcescens; experiment: Antimicrobial activity, paper disc method; type: cell-based; details: paper disc 8 mm, 0.02 ml of a 300 μg/ml solution, trypticase-soy agar
# Experimental: as §1
# [14] = system: Klebsiella pneumoniae; experiment: Antimicrobial activity, paper disc method; type: cell-based; details: paper disc 8 mm, 0.02 ml of a 300 μg/ml solution, trypticase-soy agar
# Experimental: as §1
# [15] = system: Escherichia coli; experiment: Antimicrobial activity, paper disc method; type: cell-based; details: paper disc 8 mm, 0.02 ml of a 300 μg/ml solution, trypticase-soy agar
# Experimental: as §1
# [16] = system: Bacillus subtilis; experiment: Antimicrobial activity, paper disc method; type: cell-based; details: paper disc 8 mm, 0.02 ml of a 300 μg/ml solution, trypticase-soy agar
# Experimental: as §1
# [17] = system: Mycobacterium avium; experiment: Antimicrobial activity, paper disc method; type: cell-based; details: paper disc 8 mm, 0.02 ml of a 300 μg/ml solution, trypticase-soy agar
# Experimental: as §1
# [18] = system: Bacillus cereus; experiment: Antimicrobial activity, paper disc method; type: cell-based; details: paper disc 8 mm, 0.02 ml of a 300 μg/ml solution, trypticase-soy agar
# Experimental: as §1
# [19] = system: Trichophyton rubrum; experiment: Activity against microorganisms; type: cell-based
# [20] = system: Sclerotinia screrotiorum; experiment: Activity against microorganisms; type: cell-based
# [21] = system: Talaromyces avellaneus; experiment: Growth inhibition of a fungus on an agar plate; type: cell-based; details: Hamigera avellanea, pH 7.0, read-out: minimal inhibitory concentration
# Experimental: On the other hand, the growth of a fungus, Talaromyces avellaneus is inhibited by P-3 on an agar plate consisting of 3.5 g disodium hydrogen phosphate, 0.5 g monopotassium dihydrogen phosphate, 5 g yeast extract (Difco), 10 g glucose, 15 g agar, 1000 ml distilled water, pH 7.0. The minimal inhibitory concentration was 3 μg/ml for P-3.
# [22] = system: Pellicularia sasakii; experiment: Activity against microorganisms; type: cell-based
# [23] = Preliminary acute toxicity test with mice; details: mouse, in vivo, ip, intraperitoneal injection
compound,measurement,setting,value
COc1cc2cc(c1Cl)N(C)C(=O)CC(OC(=O)C(C)C)C1(C)OC1C(C)C1CC(O)(NC(=O)O1)C(OC)C=CC=C(C)C2 (centres unmarked) [P-3],activity against Fusicladium levieri,[1],had the activity
same,activity against Cryptococcus neoformans,[2],had the activity
same,activity against Cochlioborus miyabeanus,[3],had the activity
same,Solubility,[4]; acetone,Soluble
same,Solubility,[4]; benzene,Sparingly soluble
same,Solubility,[4]; chloroform,Soluble
same,Solubility,[4]; dimethylsulfoxide,Soluble
same,Solubility,[4]; ethanol,Soluble
same,Solubility,[4]; ether,Sparingly soluble
same,Solubility,[4]; ethyl acetate,Soluble
same,Solubility,[4]; hexane,Insoluble
same,Solubility,[4]; methanol,Soluble
same,Solubility,[4]; petr.ether,Insoluble
same,Solubility,[4]; pyridine,Soluble
same,Solubility,[4]; tetrahydrofuran,Soluble
same,Solubility,[4]; water,Insoluble
same,life-span-extending ratio,[5],168%
same,activity against Helminthosporium sigmoidium var irregulare,[6],had the activity
same,activity against Pyricularia oryzae,[7],had the activity
same,activity against Rhodotorula rubra,[8],had the activity
same,activity against bacteria (Proteus mirabilis),[9],no activity
same,activity against bacteria (Proteus vulgaris),[10],no activity
same,activity against bacteria (Pseudomonas aeruginosa),[11],no activity
same,activity against bacteria (Staphylococcus aureus),[12],no activity
same,activity against bacteria (Serratia marcescens),[13],no activity
same,activity against bacteria (Klebsiella pneumoniae),[14],no activity
same,activity against bacteria (Escherichia coli),[15],no activity
same,activity against bacteria (Bacillus subtilis),[16],no activity
same,activity against bacteria (Mycobacterium avium),[17],no activity
same,activity against bacteria (Bacillus cereus),[18],no activity
same,activity against Trichophyton rubrum,[19],had the activity
same,activity against Sclerotinia screrotiorum,[20],had the activity
same,MIC,[21],3 µg/mL
same,activity against Pellicularia sasakii,[22],had the activity
same,LD50,[23],> 0.313 mg/kg

# From US4228239A (priority 1977, dated 1980)
